The text below walks through data of ChEMBL document CHEMBL3739361, “Design, facile synthesis and anthelmintic activity of new O-substituted 6-methoxybenzothiazole-2-carbamates” (2015).

Molecules are shown by their SMILES.

Assay type in all cases: functional
Experiment [1] deals with Paramphistomum. The experiment is described as follows: Antihelmintic activity against rumen flukes assessed as mortality at 40 ug/ml after 2 hrs relative to control.
For experiment [2], the system named is Paramphistomum. As to the kind of experiment: Antihelmintic activity against rumen flukes assessed as mortality at 80 ug/ml after 1 hr relative to control.
For experiment [3], the system named is Paramphistomum. As to the kind of experiment: Antihelmintic activity against rumen flukes assessed as mortality at 40 ug/ml after 6 hrs relative to control.
In experiment [4] the test system is Paramphistomum. The experiment is described as follows: Antihelmintic activity against rumen flukes assessed as mortality at 80 ug/ml after 2 hrs relative to control.
The test system of experiment [5] is Paramphistomum. The experiment is described as follows: Antihelmintic activity against rumen flukes assessed as mortality at 40 ug/ml after 4 hrs relative to control.
In experiment [6] the test system is Paramphistomum. As to the kind of experiment: Antihelmintic activity against rumen flukes assessed as mortality at 80 ug/ml after 4 hrs relative to control.
The test system of experiment [7] is Paramphistomum. As to the kind of experiment: Antihelmintic activity against rumen flukes assessed as mortality at 40 ug/ml after 1 hr relative to control.
For experiment [8], the system named is Paramphistomum. The experiment is described as follows: Antihelmintic activity against rumen flukes assessed as mortality at 80 ug/ml after 6 hrs relative to control.

On to `COC(=O)Nc1nc2ccc(OCC(=O)N/N=C/c3ccco3)cc2s1`, for which the mortality (in general, the percentage killed) at 40 µg/mL amounted to 20% in experiment [1], 40% in experiment [3], 30% in experiment [5] and 10% in experiment [7]. Also, the mortality at 80 µg/mL in experiment [2] turned out to be 30%; in experiment [4] it was 40%; in experiment [6], 60%; in experiment [8], 70%.

Consider `COC(=O)Nc1nc2ccc(OCC(=O)NNS(=O)(=O)c3ccc(C)cc3)cc2s1`, for which the mortality at 40 µg/mL in experiment [1] is 10%; in experiment [3] it was 30%; in experiment [5], 20%; in experiment [7], 10%. For the same molecule, the mortality at 80 µg/mL came out at 20% in experiment [2], 20% in experiment [4], 30% in experiment [6] and 40% in experiment [8].

Consider `CC(=O)Nc1nc2ccc(OCC3=NN(C(C)=O)C(c4ccc([N+](=O)[O-])cc4)O3)cc2s1` (stereo not given), for which the mortality at 40 µg/mL stood at 30% in experiment [1], 70% in experiment [3], 40% in experiment [5] and 10% in experiment [7]. Further, the mortality at 80 µg/mL in experiment [2] is 20%; in experiment [4], 50%; in experiment [6] it was 70%; in experiment [8], 100%.

Take `CC(=O)Nc1nc2ccc(OCC3=NN(C(C)=O)C(c4ccccc4)O3)cc2s1` (stereo not given): the mortality at 40 µg/mL in experiment [1], in experiment [3], in experiment [5] and in experiment [7] was 0% throughout. Moreover, the mortality at 80 µg/mL in experiment [2] was found to be 0%; in experiment [4] it was 0%; in experiment [6], 10%; in experiment [8], 10%.

On to `COC(=O)NNC(=O)COc1ccc2nc(NC(=O)OC)sc2c1`, for which the mortality at 40 µg/mL is 20% in experiment [1], 40% in experiment [3], 30% in experiment [5] and 10% in experiment [7]. For the same molecule, the mortality at 80 µg/mL in experiment [2] stood at 30%; in experiment [4], 40%; in experiment [6] it was 70%; in experiment [8] it was 80%.

Take `COC(=O)Nc1nc2ccc(OCC(=O)NNS(=O)(=O)c3ccccc3)cc2s1`: the mortality at 40 µg/mL came to 10% in experiment [1], 30% in experiment [3], 20% in experiment [5] and 10% in experiment [7]. The mortality at 80 µg/mL in experiment [2] is 20%; in experiment [4], 30%; in experiment [6] it was 40%; in experiment [8], 50%.

For the molecule `CC(=O)Nc1nc2ccc(OCC3=NN(C(C)=O)C(c4ccc(Cl)cc4)O3)cc2s1` (stereo not given), the mortality at 40 µg/mL in experiment [1] is 40%; in experiment [3], 60%; in experiment [5], 50%; in experiment [7] it was 20%. For the same molecule, the mortality at 80 µg/mL in experiment [2] came to 20%; in experiment [4] it was 50%; in experiment [6], 80%; in experiment [8], 100%.

As to `COC(=O)Nc1nc2ccc(OCC(=O)N/N=C(\C)c3ccc(Br)cc3)cc2s1` (mixture of isomers), the mortality at 40 µg/mL in experiment [1], in experiment [3], in experiment [5] and in experiment [7] was 10% in each case. Moreover, the mortality at 80 µg/mL in experiment [2] stood at 20%; in experiment [4] it was 20%; in experiment [6], 30%; in experiment [8], 30%.

On to `COC(=O)Nc1nc2ccc(OCC(=O)N/N=C(\C)c3ccccc3)cc2s1` (mixture of isomers), for which the mortality at 40 µg/mL amounted to 10% in experiment [1], 20% in experiment [3], 10% in experiment [5] and 10% in experiment [7]. The mortality at 80 µg/mL in experiment [2] was determined as 20%; in experiment [4], 20%; in experiment [6], 20%; in experiment [8], 30%.

With `COC(=O)Nc1nc2ccc(OCC(=O)N/N=C/c3ccc(Cl)cc3)cc2s1` (mixture of isomers), the mortality at 40 µg/mL in experiment [1] worked out at 0%; in experiment [3], 20%; in experiment [5], 10%; in experiment [7], 0%. Besides, the mortality at 80 µg/mL stood at 20% in experiment [2], 30% in experiment [4], 50% in experiment [6] and 60% in experiment [8].

`COC(=O)Nc1nc2ccc(OCC(=O)N/N=C(\C)c3ccc(C)cc3)cc2s1` (mixture of isomers): the mortality at 40 µg/mL in experiment [1], in experiment [3], in experiment [5] and in experiment [7] was 10% in each case. Further, the mortality at 80 µg/mL in experiment [2], in experiment [4], in experiment [6] and in experiment [8] was 20% throughout.

Take `COC(=O)Nc1nc2ccc(OCC(=O)N/N=C/c3ccc([N+](=O)[O-])cc3)cc2s1` (mixture of isomers): the mortality at 40 µg/mL in experiment [1], in experiment [3], in experiment [5] and in experiment [7] was 10% throughout. The mortality at 80 µg/mL in experiment [2], in experiment [4], in experiment [6] and in experiment [8] was 20% throughout.

In the case of `COC(=O)Nc1nc2ccc(OCC(=O)N/N=C/c3ccccc3OC(=O)OC)cc2s1` (mixture of isomers), the mortality at 40 µg/mL in experiment [1], in experiment [3], in experiment [5] and in experiment [7] was 10% throughout. Besides, the mortality at 80 µg/mL in experiment [2] was 10%; in experiment [4] it was 20%; in experiment [6], 20%; in experiment [8] it was 20%.

With `COC(=O)Nc1nc2ccc(OCC(=O)N/N=C/c3ccccc3)cc2s1` (mixture of isomers), the mortality at 40 µg/mL in experiment [1] turned out to be 10%; in experiment [3], 20%; in experiment [5], 10%; in experiment [7] it was 10%. For the same molecule, the mortality at 80 µg/mL in experiment [2] amounted to 10%; in experiment [4], 20%; in experiment [6] it was 20%; in experiment [8] it was 40%.

Turning to `COC(=O)Nc1nc2ccc(OCC(=O)N/N=C(\C)c3ccc(Cl)cc3)cc2s1` (mixture of isomers), the mortality at 40 µg/mL is 10% in experiment [1], 40% in experiment [3], 30% in experiment [5] and 10% in experiment [7]. In addition, the mortality at 80 µg/mL in experiment [2] turned out to be 30%; in experiment [4] it was 40%; in experiment [6], 50%; in experiment [8], 70%.

With `O=C(Nc1cc(Cl)cc(Cl)c1O)c1c(O)c(Cl)cc(Cl)c1Cl` [OXYCLOZANIDE], the mortality at 40 µg/mL in experiment [1] was 70%; in experiment [5] it was 100%; in experiment [7], 30%. The mortality at 80 µg/mL was determined as 50% in experiment [2] and 100% in experiment [4].
